Test results taken from BindingDB's records for doi:10.1016/j.ejmech.2019.05.027 (Central University of Punjab, 2019).
Residues, ends and D or L forms follow the SMILES beside them.

What was measured:
[1] = biological target: T1, ATP-dependent translocase ABCB1 (Homo sapiens, UniProt P08183); experiment: Inhibition of P-gp in HEK293/ABCB1 cells assessed as potentiation of doxorubicin-induced cytotoxicity by measuring doxorubicin IC50 at 1 uM incubated for 48 hrs by MTT assay (Rvb = 8.08 uM)
[2] = Inhibition of P-gp in HEK293/ABCB1 cells assessed as potentiation of cisplatin-induced cytotoxicity by measuring cisplatin IC50 at 2 uM incubated for 48 hrs by MTT assay (Rvb = 8.08 uM)
[3] = biological target: T1, ATP-dependent translocase ABCB1; experiment: Inhibition of P-gp in human NCI-H460/R cells assessed as potentiation of doxorubicin-induced cytotoxicity by measuring reduction in doxorubicin IC50 at 0.1 to 2.5 uM incubated for 72 hrs by MTT assay
[4] = biological target: T1, ATP-dependent translocase ABCB1; experiment: Inhibition of P-gp in human Caco2 cells assessed as potentiation of doxorubicin-induced cytotoxicity by measuring reduction in doxorubicin IC50 at 2.2 uM incubated for 24 hrs by MTT assay

T1 sequence (P08183 whole entry): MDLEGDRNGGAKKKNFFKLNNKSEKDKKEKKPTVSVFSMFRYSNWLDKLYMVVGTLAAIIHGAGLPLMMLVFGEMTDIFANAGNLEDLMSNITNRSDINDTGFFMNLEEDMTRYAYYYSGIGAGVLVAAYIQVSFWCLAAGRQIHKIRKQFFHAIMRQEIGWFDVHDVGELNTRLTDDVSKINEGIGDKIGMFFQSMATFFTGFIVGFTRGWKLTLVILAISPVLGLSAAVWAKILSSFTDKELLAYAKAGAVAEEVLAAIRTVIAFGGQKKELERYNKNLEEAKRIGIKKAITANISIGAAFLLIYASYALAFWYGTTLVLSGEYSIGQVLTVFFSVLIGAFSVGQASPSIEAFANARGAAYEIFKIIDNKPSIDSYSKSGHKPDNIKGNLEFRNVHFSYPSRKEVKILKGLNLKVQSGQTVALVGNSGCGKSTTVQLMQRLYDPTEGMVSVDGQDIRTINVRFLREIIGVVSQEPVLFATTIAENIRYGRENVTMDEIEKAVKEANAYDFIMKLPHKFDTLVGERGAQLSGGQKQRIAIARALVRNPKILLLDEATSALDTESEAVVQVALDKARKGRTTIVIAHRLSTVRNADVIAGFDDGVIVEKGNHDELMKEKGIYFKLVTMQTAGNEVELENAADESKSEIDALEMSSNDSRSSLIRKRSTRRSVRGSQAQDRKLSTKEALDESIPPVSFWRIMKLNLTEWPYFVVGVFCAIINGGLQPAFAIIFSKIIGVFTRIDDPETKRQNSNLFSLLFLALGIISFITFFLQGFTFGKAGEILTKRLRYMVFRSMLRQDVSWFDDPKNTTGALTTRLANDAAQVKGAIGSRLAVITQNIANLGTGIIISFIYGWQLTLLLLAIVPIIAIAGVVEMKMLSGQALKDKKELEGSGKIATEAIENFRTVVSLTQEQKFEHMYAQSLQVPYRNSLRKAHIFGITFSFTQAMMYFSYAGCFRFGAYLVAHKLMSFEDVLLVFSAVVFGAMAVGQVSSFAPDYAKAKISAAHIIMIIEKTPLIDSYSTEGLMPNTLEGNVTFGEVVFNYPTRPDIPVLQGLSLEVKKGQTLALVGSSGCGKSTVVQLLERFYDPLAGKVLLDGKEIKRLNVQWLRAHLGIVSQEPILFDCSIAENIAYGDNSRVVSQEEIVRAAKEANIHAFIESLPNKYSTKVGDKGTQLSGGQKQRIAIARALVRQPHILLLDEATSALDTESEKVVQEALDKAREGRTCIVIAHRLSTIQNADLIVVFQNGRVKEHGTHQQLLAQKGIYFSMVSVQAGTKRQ

SMILES: CCOc1cc(O)cc2c1C[C@@H](OC(=O)c1cc(OCC)c(OCC)c(OCC)c1)[C@@H](c1cc(O)c(OCC)c(OCC)c1)O2
- IC50 [1]: 620 nM
- IC50 [2]: 920 nM

SMILES: CC(C)[C@H](NC(=O)[C@H](CO)NC(=O)[C@@H](N)Cc1ccc(O)cc1)C(=O)O (H-Tyr-Ser-Val-OH)
- IC50 [3]: 700 nM

SMILES: CC1(C)O[C@H]2CC(=O)OC[C@]23[C@H]2CC[C@@]4(C)[C@H](c5ccoc5)OC(=O)[C@H]5O[C@]54[C@]2(C)C(=O)C[C@@H]13 [Limonin]
- IC50 [4]: 19100 nM
